# Patent US20140031217A1, “HERBICIDAL COMPOSITIONS COMPRISING 4-AMINO-3-CHLORO-5-FLUORO-6-(4-CHLORO-2-FLUORO-3-METHOXYPHENYL)PYRIDINE-2-CARBOXYLIC ACID OR A DERIVATIVE THEREOF AND AUXIN TRANSPORT INHIBITORS” (DOW AGROSCIENCES LLC, priority 2012, published 2014)
# Columns and labels:
# ECHCO = assay: Postemergence foliar-applied greenhouse weed control, ECHCO; assay type: in vivo, Echinochloa colona (L.) Link
# From the text: Seeds or nutlets of the desired test plant species were planted in a soil matrix prepared by mixing a loam or sandy loam soil (e.g., 28.6 percent silt, 18.8 percent clay, and 52.6 percent sand, with a pH of about 5.8 and an organic matter content of about 1.8 percent) and calcareous grit in an 80 to 20 ratio. The soil matrix was contained in plastic pots with a volume of 1 quart and a surface area of 83.6 square centimeters (cm^2). When required to ensure good germination and healthy plants, a fungicide treatment and/or other chemical or physical treatment was applied. The plants were grown for 8-22 days in a greenhouse with an approximate 14 h photoperiod which was maintained at about 29° C. during the day and 26° C. during the night. Nutrients (Peters Excel® 15-5-15 5-Ca 2-Mg and iron chelate) were applied in the irrigation solution as needed and water was added on a regular basis. Supplemental lighting was provided with overhead metal halide 1000-Watt lamps as necessary. The plants were employed for testing when they reached the first through fourth true leaf stage.
# Treatments consisted of the acid or esters of 4-amino-3-chloro-5-fluoro-6-(4-chloro-2-fluoro-3-methoxy-phenyl) pyridine-2-carboxylic acid (Compound A), each formulated as an SC (suspension concentrate), and various herbicidal components alone and in combination. Forms of compound A were applied on an acid equivalent basis.
# Other herbicidal components were applied on an active ingredient basis and included auxin transport inhibiting (ATI) herbicides chlorflurenol (technical material), chlorflurenol-methyl (technical material), diflufenzopyr (technical material), diflufenzopyr sodium (technical material), flurenol-methyl (technical material) and naptalam (technical material).
# Treatment requirements were calculated based upon the rates being tested, the concentration of active ingredient or acid equivalent in the formulation, and a 12 mL application volume at a rate of 187 L/ha.
# For treatments comprised of formulated and technical compounds, weighed amounts of the technical materials were placed individually in 25 mL glass vials and dissolved in a volume of 97:3 v/v acetone/DMSO to obtain 12× stock solutions, and measured amounts of the formulated compounds were placed individually in 25 mL glass vials and diluted in a volume of 1.5% (v/v) crop oil concentrate or water to obtain 12× stock solutions. […] Application solutions were prepared by adding an appropriate amount of each stock solution (e.g., 1 mL) and diluted to the appropriate final concentrations with the addition of an appropriate amount of an aqueous mixture of 1.5% (v/v) crop oil concentrate so that the final spray solutions contained 1.25% (v/v) crop oil concentrate. When required, additional water and/or 97:3 v/v acetone/DMSO was added to individual application solutions so that the final acetone and DMSO concentrations of the application solutions being compared were 8.1% and 0.25%, respectively.
# All stock solutions and applications solutions were visually inspected for compound compatibility prior to application. Spray solutions were applied to the plant material with an overhead Mandel track sprayer equipped with an 8002E nozzle calibrated to deliver 187 L/ha over an application area of 0.503 m^2 at a spray height of 18 to 20 inches (46 to 50 cm) above average plant canopy height. Control plants were sprayed in the same manner with the solvent blank.
# The treated plants and control plants were placed in a greenhouse as described above and watered by sub-irrigation to prevent wash-off of the test compounds. After approximately 3 weeks, the condition of the test plants as compared with that of the untreated plants was determined visually and scored on a scale of 0 to 100 percent where 0 corresponds to no injury or growth inhibition and 100 corresponds to complete kill. […]
# ECHOR = assay: In-water applied (paddy) greenhouse weed control, ECHOR; assay type: in vivo, Echinochloa oryzoides (Ard.) Fritsch
# Experimental: Weed seeds or nutlets of the desired test plant species were planted in puddled soil (mud) prepared by mixing a shredded, non-sterilized mineral soil (50.5 percent silt, 25.5 percent clay, and 24 percent sand, with a pH of about 7.6 and an organic matter content of about 2.9 percent) and water at a 1:1 volumetric ratio. The prepared mud was dispensed in 365 mL aliquots into 16-ounce (oz.) non-perforated plastic pots with a surface area of 86.59 square centimeters (cm^2) leaving a headspace of 3 centimeters (cm) in each pot. Mud was allowed to dry overnight prior to planting or transplanting. Rice seeds were planted in Sun Gro MetroMix® 306 planting mixture, which typically has a pH of 6.0 to 6.8 and an organic matter content of about 30 percent, in plastic plug trays. Seedlings at the second or third leaf stage of growth were transplanted into 840 mL of mud contained in 32-oz. non-perforated plastic pots with a surface area of 86.59 cm^2 4 days prior to herbicide application. The paddy was created by filling the headspace of the pots with 2.5 to 3 cm of water. When required to ensure good germination and healthy plants, a fungicide treatment and/or other chemical or physical treatment was applied. The plants were grown for 4-22 days in a greenhouse with an approximate 14 h photoperiod which was maintained at about 29′C during the day and 26° C. during the night. Nutrients were added as Osmocote® (19:6:12, N:P:K+minor nutrients) at 2 g per 16-oz. pot and 4 g per 960-mL 32-oz. pot. Water was added on a regular basis to maintain the paddy flood, and supplemental lighting was provided with overhead metal halide 1000-Watt lamps as necessary. The plants were employed for testing when they reached the second or third true leaf stage.
# Treatments consisted of the acid or esters of 4-amino-3-chloro-5-fluoro-6-(4-chloro-2-fluoro-3-methoxy-phenyl)pyridine-2-carboxylic acid (compound A) each formulated as an SC and various herbicidal components alone and in combination. Forms of compound A were applied on an acid equivalent basis.
# Other herbicidal components were applied on an active ingredient basis and included auxin transport inhibiting (ATI) herbicides chlorflurenol-methyl (technical material), chlorflurenol (technical material), diflufenzopyr (technical material), dilfufenzopyr sodium (technical material), flurenol-methyl (technical material,) and naptalam (technical material).
# Treatment requirements for each compound or herbicidal component were calculated based upon the rates being tested, the concentration of active ingredient or acid equivalent in the formulation, an application volume of 2 mL per component per pot, and an application area of 86.59 cm^2 per pot.
# For formulated compounds, a measured amount was placed in an individual 100 or 200 mL glass vial and was dissolved in a volume of 1.25% (v/v) Agri-Dex® crop oil concentrate to obtain application solutions.
# For technical grade compounds, a weighed amount was placed in an individual 100 to 200 mL glass vial and was dissolved in a volume of acetone to obtain concentrated stock solutions. […] The concentrated stock solutions obtained were diluted with an equivalent volume of an aqueous mixture containing 2.5% (v/v) crop oil concentrate so that the final application solutions contained 1.25% (v/v) crop oil concentrate.
# Applications were made by injecting with a pipetter appropriate amounts of the application solutions, individually and sequentially, into the aqueous layer of the paddy. Control plants were treated in the same manner with the solvent blank. Applications were made so that all treated plant material received the same concentrations of acetone and crop oil concentrate.
# The treated plants and control plants were placed in a greenhouse as described above and water was added as needed to maintain a paddy flood. […]
Structure (SMILES),"Visual Weed Control (%) Obs (ECHCO; 20 DAA, 4.38 gae/ha) [%]","Visual Weed Control (%) Obs (ECHCO; 21 DAA, 4.38 gae/ha) [%]","Visual Weed Control (%) Obs (ECHOR; 20 DAA, 8.75 gae/ha) [%]","Visual Weed Control (%) Obs (ECHOR; 20 DAA, 17.5 gae/ha) [%]","Visual Weed Control (%) Obs (ECHOR; 20 DAA, 35 gae/ha) [%]","Visual Weed Control (%) Obs (ECHOR; 22 DAA, 8.75 gae/ha) [%]","Visual Weed Control (%) Obs (ECHOR; 22 DAA, 17.5 gae/ha) [%]","Visual Weed Control (%) Obs (ECHOR; 22 DAA, 35 gae/ha) [%]","Visual Weed Control (%) Obs (ECHCO; 20 DAA, 8.75 gae/ha) [%]","Visual Weed Control (%) Obs (ECHOR; 19 DAA, 32 gae/ha) [%]","Visual Weed Control (%) Obs (ECHOR; 20 DAA, 4.38 gae/ha) [%]"
"COc1c(Cl)ccc(-c2nc(C(=O)O)c(Cl)c(N)c2F)c1F [Compound A Acid, 4-amino-3-chloro-6-(4-chloro-2-fluoro-3-methoxyphenyl)-5-fluoropyridine-2-carboxylic acid]",40,60,10,15,25,0,20,20,,,
COc1c(Cl)ccc(-c2nc(C(=O)OCc3ccccc3)c(Cl)c(N)c2F)c1F [Compound A Benzyl Ester],60,,15,,,,,,80,25,10
